Reference: patent US20250154188A1, “C-GLYCOSIDES AS ANTI-INFLAMMATORY AGENTS” (UNIVERSITY OF PITTSBURGH - OF THE COMMONWEALTH SYSTEM OF …, priority 2022, published 2025)

Tests used:
mice with NEC [1] = test: Mouse NEC model, ileal inflammation marker mRNA (qRT-PCR); assay type: in vivo; conditions: neonatal mice, oral gavage 10 mg per kg body weight per day during NEC induction; FIG. 3-7
Description: Mouse NEC model. Experimental NEC was induced in a well validated and reproducible model in 7-day-old mice of either gender, which were randomly divided into control and test groups, by gavage feeding newborn mice with formula containing Similac Advance infant formula (Abbott Nutrition): Esbilac (PetAg) canine milk replacer, 2:1 ratio, which was supplemented with enteric bacteria made from a stock created from a specimen obtained from an infant with surgical NEC five times per day. Additionally, the mice were subjected to hypoxia (5% O2-95% N2) for 10 min in a hypoxia chamber (Billups-Rothenberg) twice daily for 4 days. The C34 analogues were administered by oral gavage during the induction of NEC at the dose of 10 mg per kg body weight per day. […]
RNA isolation, cDNA synthesis and qPCR. Total RNA was isolated using the RNeasy mini kit (Qiagen) and complementary DNA was synthesized from 0.5 μg RNA using QuantiTect Reverse Transcription kit (Qiagen) following the manufacturer's protocols. The mRNA quantification was performed on the Bio-Rad CFX96 Real-Time System (Bio-Rad) using iTaq™ universal SYBR® Green supermix (Bio-Rad) and Bio-Rad CFX Manager 3.1 software was used to collect data from qRT-PCR. […]
Statistical Analysis. Transcript levels for inflammatory biomarkers were assessed by performing a one-way ANOVA statistical analysis followed by multiple comparison. […]

mice with NEC [2] = test: Mouse NEC model, H&E staining of ileal tissue sections; assay type: in vivo; conditions: oral gavage 10 mg per kg body weight per day, FIG. 13
Description: Mouse NEC model. Experimental NEC was induced in a well validated and reproducible model in 7-day-old mice of either gender, which were randomly divided into control and test groups, by gavage feeding newborn mice with formula containing Similac Advance infant formula (Abbott Nutrition): Esbilac (PetAg) canine milk replacer, 2:1 ratio, which was supplemented with enteric bacteria made from a stock created from a specimen obtained from an infant with surgical NEC five times per day. Additionally, the mice were subjected to hypoxia (5% O2-95% N2) for 10 min in a hypoxia chamber (Billups-Rothenberg) twice daily for 4 days. The C34 analogues were administered by oral gavage during the induction of NEC at the dose of 10 mg per kg body weight per day. Age-matched breast milk-fed mouse pups were used as non-NEC controls. The relative mRNA expression levels of Toll-like receptor 4 (Tlr4) (FIG. 3), interleukin 6 (Il6) (FIG. 4), interleukin 1 beta (Il1b) (FIG. 5), tumor necrosis factor (Tnf) (FIG. 6) and lipocalin 2 (Lcn2) (FIG. 7) were shown.
Hematoxylin and eosin (H&E) staining. […]

Which “necrotizing enterocolitis inflammation markers Tlr4, Il6, Il1b, Tnf, Lcn2 (relative mRNA expression in ileum)” value (mice with NEC [1]) does the source give for CC(C)CC1OC(COC(=O)CC(C)(C)C)C(OC(=O)CC(C)(C)C)C(OC(=O)CC(C)(C)C)C1OC(=O)CC(C)(C)C (centres unmarked) [Compound C281] here?
The value was “robust response”.

And the “tissue architecture of the intestinal lining (H&E)” value (mice with NEC [2])?
The value was “preserve the tissue architecture of the intestinal lining”.
